Values of other authors in US12214218B2, “Perfusion modulated tumor dose sculpting with single dose radiotherapy” (MEMORIAL SLOAN KETTERING CANCER CENTER, priority 2019, dated 2025).
Like-named read-outs stand apart in the source and are kept apart here.

## Cc1cc(C)c(/C=C2\C(=O)Nc3ccccc32)[nH]1 [Semaxanib/SU5416, Semaxanib]
In vivo
  average half-life: 0.5 to 1 h

## CNC(=O)c1ccccc1Sc1ccc2c(/C=C/c3ccccn3)n[nH]c2c1 [axitinib]
In vivo
  average half-life: 2.5 to 6 h

## COc1cc2c(Oc3ccc4[nH]c(C)cc4c3F)ncnc2cc1OCCCN1CCCC1 [cediranib]
Plasma half-life for cediranib
  average half-life: 22 to 27 h

## anginex
In vivo
  half-life: 0.833 h

B1: rhASM: Recombinant ASM manufactured for clinical use; orphan drug status for Type B NPD (protein, UniProt P17405 47-631, looked up)
Sphingomyelin …: LALSDSRVLWAPAEAHPLSPQGHPARLHRIVPRLRDVFGWGNLTCPICKGLFTAINLGLKKEPNVARVGSVAIKLCNLLKIAPPAVCQSIVHLFEDDMVEVWRRSVLSPSEACGLLLGSTCGHWDIFSSWNISLPTVPKPPPKPPSPPAPGAPVSRILFLTDLHWDHDYLEGTDPDCADPLCCRRGSGLPPASRPGAGYWGEYSKCDLPLRTLESLLSGLGPAGPFDMVYWTGDIPAHDVWHQTRQDQLRALTTVTALVRKFLGPVPVYPAVGNHESTPVNSFPPPFIEGNHSSRWLYEAMAKAWEPWLPAEALRTLRIGGFYALSPYPGLRLISLNMNFCSRENFWLLINSTDPAGQLQWLVGELQAAEDRGDKVHIIGHIPPGHCLKSWSWNYYRIVARYENTLAAQFFGHTHVDEFEVFYDEETLSRPLAVAFLAPSATTYIGLNPGYRVYQIDGNYSGSSHVVLDHETYILNLTQANIPGAIPHWQLLYRARETYGLPNTLPTAWHNLVYRMRGDMQLFQTFWFLYHKGHPPSEPCGTPCRLATLCAQLSARADSPALCRHLMPDGSLPEAQSLWPRPLFC
Wild type mice
  toxicity at high doses: non-toxic
